Data published in PMC7464270, “The Interaction of Bovine β-Lactoglobulin with Caffeic Acid: From Binding Mechanisms to Functional Complexes” (Biomolecules, 2020).

Molecular target: T1, native bovine β-lactoglobulin (n-β-LG) (Bos taurus, UniProt P02754)
T1 construct: gene LGB; dimer prevails at physiological pH
T1 sequence (P02754 17-178): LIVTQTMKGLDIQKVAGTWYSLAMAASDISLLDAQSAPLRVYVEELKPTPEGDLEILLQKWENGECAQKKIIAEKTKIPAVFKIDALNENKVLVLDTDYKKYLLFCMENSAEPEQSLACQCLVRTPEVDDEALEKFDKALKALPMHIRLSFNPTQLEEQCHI
Test: intrinsic tryptophan fluorescence quenching (excitation […] nm)
Format: binding
Details: native protein treated at 25 °C (measured at 23 ± 1 °C), Tris buffer pH 8.0; double-log

O=C(O)/C=C/c1ccc(O)c(O)c1 [CA, caffeic acid]
n-β-LG / Kb (10^6 Mol^-1): 0.72 ± 0.03 10^6 Mol^-1
